Reference: the supplement of paper PMC10307832

How the values were obtained:
Test in all cases: relative viability (nuclei count vs DMSO), 5 days (fraction); higher = more cells survive
NCI-H2228 = tested on: NCI-H2228
Summary of the method: (§1)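 Each reported value is a median over duplicate plates. It expresses relative viability: treated-well nuclei count divided by vehicle-well nuclei count. Lung cancer cell lines in 1536-well plates were dosed by pin tool a day after seeding, alone with one drug or with a fixed anchor-drug dose plus five library-drug doses (not always all listed) in √10 steps, and nuclei were counted after 5 days.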

SW 1573 = tested on: SW 1573
Summary of the method: as §1

HOP-62 = tested on: HOP-62
Summary of the method: as §1

HCC-827 = tested on: HCC-827
Summary of the method: as §1

NCI-H1437 = tested on: NCI-H1437
Summary of the method: as §1

LCLC-103H = tested on: LCLC-103H
Summary of the method: as §1

A-427 = tested on: A-427
Summary of the method: as §1

NCI-H1792 = tested on: NCI-H1792
Summary of the method: as §1

NCI-H1395 = tested on: NCI-H1395
Summary of the method: as §1

NCI-H1355 = tested on: NCI-H1355
Summary of the method: as §1

NCI-H460 = tested on: NCI-H460
Summary of the method: as §1

HARA = tested on: HARA
Summary of the method: as §1

NCI-H1755 = tested on: NCI-H1755
Summary of the method: as §1

EMC-BAC-2 = tested on: EMC-BAC-2
Summary of the method: as §1

NCI-H522 = tested on: NCI-H522
Summary of the method: as §1

COR-L 105 = tested on: COR-L 105
Summary of the method: as §1

SK-LU-1 = tested on: SK-LU-1
Summary of the method: as §1

NCI-H23 = tested on: NCI-H23
Summary of the method: as §1

NCI-H1915 = tested on: NCI-H1915
Summary of the method: as §1

HCC-366 = tested on: HCC-366
Summary of the method: as §1

NCI-H2009 = tested on: NCI-H2009
Summary of the method: as §1

NCI-H1975 = tested on: NCI-H1975
Summary of the method: as §1

CAL-12T = tested on: CAL-12T
Summary of the method: as §1

C[C@@H]1CN(CC(=O)Nc2ccc3c(c2)Cc2cccc(-c4cc(=O)cc(N5CCOCC5)o4)c2S3)C[C@H](C)O1 + Nc1nc2[nH]cc(CCc3ccc(C(=O)N[C@@H](CCC(=O)O)C(=O)O)cc3)c2c(=O)[nH]1 [Pemetrexed] (partner 0.2 µM)
relative viability (NCI-H2228; first compound 0.04 µM): 0.333 | relative viability (NCI-H2228; first compound 0.1265 µM): 0.351 | relative viability (NCI-H2228; first compound 0.4 µM): 0.34 | relative viability (NCI-H2228; first compound 4 µM): 0.226 | relative viability (SW 1573; first compound 0.04 µM): 0.935 | relative viability (SW 1573; first compound 0.1265 µM): 0.855 | relative viability (SW 1573; first compound 0.4 µM): 0.903 | relative viability (SW 1573; first compound 4 µM): 0.822 | relative viability (HOP-62; first compound 0.04 µM): 0.318 | relative viability (HOP-62; first compound 0.1265 µM): 0.33 | relative viability (HOP-62; first compound 0.4 µM): 0.317 | relative viability (HOP-62; first compound 4 µM): 0.455 | relative viability (HCC-827; first compound 0.04 µM): 0.253 | relative viability (HCC-827; first compound 0.1265 µM): 0.247 | relative viability (HCC-827; first compound 0.4 µM): 0.247 | relative viability (HCC-827; first compound 4 µM): 0.3 | relative viability (NCI-H1437; first compound 0.04 µM): 0.402 | relative viability (NCI-H1437; first compound 0.1265 µM): 0.338 | relative viability (NCI-H1437; first compound 0.4 µM): 0.336 | relative viability (NCI-H1437; first compound 4 µM): 0.335 | relative viability (LCLC-103H; first compound 0.04 µM): 0.495 | relative viability (LCLC-103H; first compound 0.1265 µM): 0.464 | relative viability (LCLC-103H; first compound 0.4 µM): 0.458 | relative viability (LCLC-103H; first compound 4 µM): 0.507 | relative viability (A-427; first compound 0.04 µM): 1.05 | relative viability (A-427; first compound 0.1265 µM): 1.04 | relative viability (A-427; first compound 0.4 µM): 1.02 | relative viability (A-427; first compound 4 µM): 0.921 | relative viability (NCI-H1792; first compound 0.04 µM): 0.72 | relative viability (NCI-H1792; first compound 0.1265 µM): 0.766 | relative viability (NCI-H1792; first compound 0.4 µM): 0.719 | relative viability (NCI-H1792; first compound 4 µM): 0.591 | relative viability (NCI-H1395; first compound 0.1265 µM): 0.833 | relative viability (NCI-H1395; first compound 0.4 µM): 0.749 | relative viability (NCI-H1395; first compound 4 µM): 1.08 | relative viability (NCI-H1355; first compound 0.04 µM): 0.941 | relative viability (NCI-H1355; first compound 0.1265 µM): 1.04 | relative viability (NCI-H1355; first compound 0.4 µM): 0.959 | relative viability (NCI-H1355; first compound 4 µM): 0.997 | relative viability (NCI-H460; first compound 0.04 µM): 0.0638 | relative viability (NCI-H460; first compound 0.1265 µM): 0.0634 | relative viability (NCI-H460; first compound 0.4 µM): 0.0696 | relative viability (NCI-H460; first compound 4 µM): 0.0616 | relative viability (HARA; first compound 0.04 µM): 0.287 | relative viability (HARA; first compound 0.1265 µM): 0.24 | relative viability (HARA; first compound 0.4 µM): 0.192 | relative viability (HARA; first compound 4 µM): 0.214 | relative viability (NCI-H1755; first compound 0.04 µM): 0.401 | relative viability (NCI-H1755; first compound 0.1265 µM): 0.507 | relative viability (NCI-H1755; first compound 0.4 µM): 0.453 | relative viability (NCI-H1755; first compound 4 µM): 0.47 | relative viability (EMC-BAC-2; first compound 0.04 µM): 0.417 | relative viability (EMC-BAC-2; first compound 0.1265 µM): 0.439 | relative viability (EMC-BAC-2; first compound 0.4 µM): 0.458 | relative viability (EMC-BAC-2; first compound 4 µM): 0.459 | relative viability (NCI-H522; first compound 0.04 µM): 0.691 | relative viability (NCI-H522; first compound 0.1265 µM): 0.89 | relative viability (NCI-H522; first compound 0.4 µM): 1.11 | relative viability (NCI-H522; first compound 4 µM): 1.11 | relative viability (COR-L 105; first compound 0.04 µM): 1.15 | relative viability (COR-L 105; first compound 0.1265 µM): 1.07 | relative viability (COR-L 105; first compound 0.4 µM): 1.19 | relative viability (COR-L 105; first compound 4 µM): 1.14 | relative viability (SK-LU-1; first compound 0.04 µM): 1.08 | relative viability (SK-LU-1; first compound 0.1265 µM): 0.933 | relative viability (SK-LU-1; first compound 0.4 µM): 1.01 | relative viability (SK-LU-1; first compound 4 µM): 0.756 | relative viability (NCI-H23; first compound 0.04 µM): 0.685 | relative viability (NCI-H23; first compound 0.1265 µM): 0.696 | relative viability (NCI-H23; first compound 0.4 µM): 0.617 | relative viability (NCI-H23; first compound 4 µM): 0.521 | relative viability (NCI-H1915; first compound 0.04 µM): 0.478 | relative viability (NCI-H1915; first compound 0.1265 µM): 0.426 | relative viability (NCI-H1915; first compound 0.4 µM): 0.413 | relative viability (NCI-H1915; first compound 4 µM): 0.358 | relative viability (HCC-366; first compound 0.04 µM): 0.151 | relative viability (HCC-366; first compound 0.1265 µM): 0.162 | relative viability (HCC-366; first compound 0.4 µM): 0.212 | relative viability (HCC-366; first compound 4 µM): 0.152 | relative viability (NCI-H2009; first compound 0.04 µM): 1.06 | relative viability (NCI-H2009; first compound 0.1265 µM): 0.968 | relative viability (NCI-H2009; first compound 0.4 µM): 1.05 | relative viability (NCI-H2009; first compound 4 µM): 0.849 | relative viability (NCI-H1975; first compound 0.04 µM): 0.268 | relative viability (NCI-H1975; first compound 0.1265 µM): 0.263 | relative viability (NCI-H1975; first compound 0.4 µM): 0.303 | relative viability (NCI-H1975; first compound 4 µM): 0.274 | relative viability (CAL-12T; first compound 0.04 µM): 1.27 | relative viability (CAL-12T; first compound 0.1265 µM): 1.21 | relative viability (CAL-12T; first compound 0.4 µM): 1.08 | relative viability (CAL-12T; first compound 4 µM): 0.428

CC(C)Oc1cc(Nc2nc(N[C@@H](C)c3ccc(F)cn3)ncc2Cl)n[nH]1 [AZ23] + Nc1nc2[nH]cc(CCc3ccc(C(=O)N[C@@H](CCC(=O)O)C(=O)O)cc3)c2c(=O)[nH]1 [Pemetrexed] (partner 0.2 µM)
relative viability (NCI-H2228; first compound 0.01 µM): 0.301 | relative viability (NCI-H2228; first compound 0.03162 µM): 0.407 | relative viability (NCI-H2228; first compound 0.3162 µM): 0.354 | relative viability (SW 1573; first compound 0.01 µM): 0.958 | relative viability (SW 1573; first compound 0.03162 µM): 0.792 | relative viability (SW 1573; first compound 0.3162 µM): 0.849 | relative viability (HOP-62; first compound 0.01 µM): 0.287 | relative viability (HOP-62; first compound 0.03162 µM): 0.359 | relative viability (HOP-62; first compound 0.3162 µM): 0.359 | relative viability (HCC-827; first compound 0.01 µM): 0.2 | relative viability (HCC-827; first compound 0.03162 µM): 0.27 | relative viability (HCC-827; first compound 0.3162 µM): 0.242 | relative viability (NCI-H1437; first compound 0.01 µM): 0.283 | relative viability (NCI-H1437; first compound 0.03162 µM): 0.345 | relative viability (NCI-H1437; first compound 0.3162 µM): 0.331 | relative viability (LCLC-103H; first compound 0.01 µM): 0.448 | relative viability (LCLC-103H; first compound 0.03162 µM): 0.433 | relative viability (LCLC-103H; first compound 0.3162 µM): 0.466 | relative viability (A-427; first compound 0.01 µM): 0.797 | relative viability (A-427; first compound 0.03162 µM): 1.01 | relative viability (A-427; first compound 0.3162 µM): 1.15 | relative viability (NCI-H1792; first compound 0.01 µM): 0.813 | relative viability (NCI-H1792; first compound 0.03162 µM): 0.912 | relative viability (NCI-H1792; first compound 0.3162 µM): 1 | relative viability (NCI-H1395; first compound 0.03162 µM): 0.97 | relative viability (NCI-H1395; first compound 0.3162 µM): 0.929 | relative viability (NCI-H1355; first compound 0.01 µM): 1.13 | relative viability (NCI-H1355; first compound 0.03162 µM): 1.11 | relative viability (NCI-H1355; first compound 0.3162 µM): 1.05 | relative viability (NCI-H460; first compound 0.01 µM): 0.0522 | relative viability (NCI-H460; first compound 0.03162 µM): 0.0661 | relative viability (NCI-H460; first compound 0.3162 µM): 0.0611 | relative viability (HARA; first compound 0.01 µM): 0.147 | relative viability (HARA; first compound 0.03162 µM): 0.309 | relative viability (HARA; first compound 0.3162 µM): 0.281 | relative viability (NCI-H1755; first compound 0.01 µM): 0.401 | relative viability (NCI-H1755; first compound 0.03162 µM): 0.459 | relative viability (NCI-H1755; first compound 0.3162 µM): 0.468 | relative viability (EMC-BAC-2; first compound 0.01 µM): 0.493 | relative viability (EMC-BAC-2; first compound 0.03162 µM): 0.46 | relative viability (EMC-BAC-2; first compound 0.3162 µM): 0.442 | relative viability (NCI-H522; first compound 0.01 µM): 1 | relative viability (NCI-H522; first compound 0.03162 µM): 1 | relative viability (NCI-H522; first compound 0.3162 µM): 1.11 | relative viability (COR-L 105; first compound 0.01 µM): 0.902 | relative viability (COR-L 105; first compound 0.03162 µM): 1.24 | relative viability (COR-L 105; first compound 0.3162 µM): 1.1 | relative viability (SK-LU-1; first compound 0.03162 µM): 1.13 | relative viability (SK-LU-1; first compound 0.3162 µM): 1.06 | relative viability (NCI-H23; first compound 0.03162 µM): 0.77 | relative viability (NCI-H23; first compound 0.3162 µM): 0.992 | relative viability (NCI-H1915; first compound 0.01 µM): 0.463 | relative viability (NCI-H1915; first compound 0.03162 µM): 0.485 | relative viability (NCI-H1915; first compound 0.3162 µM): 0.607 | relative viability (HCC-366; first compound 0.01 µM): 0.0994 | relative viability (HCC-366; first compound 0.03162 µM): 0.186 | relative viability (HCC-366; first compound 0.3162 µM): 0.171 | relative viability (NCI-H2009; first compound 0.01 µM): 1.16 | relative viability (NCI-H2009; first compound 0.03162 µM): 1.1 | relative viability (NCI-H2009; first compound 0.3162 µM): 1.02 | relative viability (NCI-H1975; first compound 0.01 µM): 0.272 | relative viability (NCI-H1975; first compound 0.03162 µM): 0.296 | relative viability (NCI-H1975; first compound 0.3162 µM): 0.312 | relative viability (CAL-12T; first compound 0.03162 µM): 1.24 | relative viability (CAL-12T; first compound 0.3162 µM): 1.23
